# Experimental data published in patent US11274268B2, “Detergent compositions for removing heavy metals and formaldehyde” (FNG RESEARCH CO., LTD., priority 2017, dated 2022).
# Experiments:
# [1] = Formaldehyde removing ability test (GC); settings: 2.0% formaldehyde solution, 3 molar equivalents, room temperature
# [2] = test system: human skin; experiment: Skin irritation test of active ingredient (patch method, CTFA guidelines); assay type: in vivo; settings: for Test result (number of subject) (+) / Test result (number of subject) (−) / Test result (number of subject) (++) / Test result (number of subject) (±): 20 subjects, 24 hours patch; for Test result (number of subject) (+): apparent reddening; for Test result (number of subject) (−): no erythema or symptoms; for Test result (number of subject) (++): reddened and swollen; for Test result (number of subject) (±): slightly reddish; for Degree of irritation: Equation 1
# Experimental: A total of 20 people (10 men and 10 women in their 20s and 30s) were tested for skin irritation using the patch method according to the guidelines of CTFA (The Cosmetic, Toiletry & Fragrance Association, Inc. Washington, D.C.).
# A filter paper disk was placed in an 8 mm diameter, 10 panels of pin chamber.
# After 24 hours, the pin chamber was removed, and skin conditions were visually observed. The degree and grade for skin irritation were calculated according to the following Equation 1, and the results are shown in Table 3 below.
# [Criteria for Skin Irritation]
# (−): No erythema or particularly no symptoms; (±): slightly reddish than the periphery; (+): Apparent reddening than periphery; (++): More reddened and swollen than periphery.
# [Grade for Skin Irritation]
# Degree of irritation 0-0.1: Grade I (unstimulated);
# Degree of irritation 0.11-0.3: Grade II (weakly stimulated);
# Degree of irritation 0.31-0.5: Grade III (moderately stimulated);
# Degree of irritation 0.51 or more: Grade IV (strongly stimulated)
structure (smiles),measurement,setting,value
"NCCNCCNCCN [Trientine, Triethylenetetramine, reference compound]","Area (formaldehyde, GC)",[1]; 30 min,0.168 mAU * min
same,"Area (formaldehyde, GC)",[1]; 180 min,0 mAU * min
same,"Area (formaldehyde, GC)",[1]; Initial,0.305 mAU * min
same,Grade,[2]; content 0.1%,I (Degree of irritation 0-0.1: Grade I (unstimulated))
same,Test result (number of subject) (+),[2]; content 0.1%,0
same,Test result (number of subject) (−),[2]; content 0.1%,20
same,Test result (number of subject) (++),[2]; content 0.1%,0
same,Test result (number of subject) (±),[2]; content 0.1%,0
same,Degree of irritation,[2]; content 0.1%,0
same,Grade,[2]; content 0.5%,I (Degree of irritation 0-0.1: Grade I (unstimulated))
same,Test result (number of subject) (+),[2]; content 0.5%,0
same,Test result (number of subject) (−),[2]; content 0.5%,19
same,Test result (number of subject) (++),[2]; content 0.5%,0
same,Test result (number of subject) (±),[2]; content 0.5%,1
same,Degree of irritation,[2]; content 0.5%,0.05
same,Grade,[2]; content 1.0%,II (Degree of irritation 0.11-0.3: Grade II (weakly stimulated))
same,Test result (number of subject) (+),[2]; content 1.0%,0
same,Test result (number of subject) (−),[2]; content 1.0%,17
same,Test result (number of subject) (++),[2]; content 1.0%,0
same,Test result (number of subject) (±),[2]; content 1.0%,3
same,Degree of irritation,[2]; content 1.0%,0.15
